Literature values, collected in patent publication US6703389B2, “Method of treating chronic pain” (Pharmacia & Upjohn Company, priority 1999, dated 2004).

Tests used:
[1] = mice, literature (Brunello and Racagni 1998)
[2] = literature (Leonard 1997)
[3] = tested on: norepinephrine reuptake compared to serotonin reuptake; conditions: rat brain synaptosomes, literature

Row | pharmacological selectivity for inhibiting norepinephrine reuptake compared to serotonin reuptake, ratio of Ki values [3] | SMILES | effect on resperine-induced blepharospasm and hypothermia [1] | effect in the 8-OH-DPAT hypothermia test [2]
1 | – | CCOc1ccccc1OC(c1ccccc1)C1CNCCO1 (racemic) [Reboxetine, 2-[(2-ethoxyphenoxy)(phenyl)methyl]morpholine] | prevent | ineffective
2 | about 4166 | CNCC(O)CC12CCC(c3ccccc31)c1ccccc12 (stereo not drawn) [oxaprotiline] | – | –
